Results from ChEMBL document CHEMBL5260849, “Current advances in Vibrio harveyi quorum sensing as drug discovery targets” (Eur J Med Chem, 2020).

System: not listed separately
Test: Inhibition of quorum-sensing system in Vibrio harveyi MM32 assessed as inhibition of AI-2 mediated bioluminescence incubated for 4 to 6 hrs by bioluminescence assay
Conditions: not given

SMILES	IC50 [µM]
Brc1ccc2ncsc2c1	88
CC1=CCn2nc(N)c(/N=N/c3ccccc3)c2N1	19.8
CC(C)(C)S(=O)(=O)CC#N	110
CSC1=CS(=O)(=O)c2ccccc21	41
Fc1ccccc1-c1ccc(CNCc2ccco2)o1	14.8
NC(=S)CS(=O)(=O)c1ccccn1	55
Cn1cnnc1SCC(=O)Nc1nc2ccccc2s1	5.51
C=CCOC(=O)C1=CS(=O)(=O)c2ccccc21	3.06
Brc1ccc(-c2cnco2)cc1	60
CSc1nccc(Oc2ccccc2Cl)n1	3.42
O=C(O)c1ccc(-c2c(Cl)cc([N+](=O)[O-])cc2Cl)o1	40.1

System: not listed separately
Test: Inhibition of quorum-sensing system in Vibrio harveyi BB170 assessed as inhibition of LuxU induced bioluminescence by bioluminescence assay
Design: concentration or dose not given beside the values
Conditions: concentration not given here

SMILES	inhibition [%]
COc1ccc(C2CC(=O)c3c(O)cc(O[C@@H]4O[C@H](CO)[C@@H](O)[C@H](O)[C@H]4O[C@@H]4O[C@@H](C)[C@H](O)[C@@H](O)[C@H]4O)cc3O2)cc1O (some centres not stated)	> 20
O=c1c(O)c(-c2ccc(O)cc2)oc2cc(O)cc(O)c12	> 99
O=C1CC(c2ccc(O)cc2)Oc2cc(O)cc(O)c21 (configuration not stated)	80
C[C@@H]1O[C@@H](O[C@H]2[C@H](Oc3cc(O)c4c(c3)OC(c3ccc(O)cc3)CC4=O)O[C@H](CO)[C@@H](O)[C@@H]2O)[C@H](O)[C@H](O)[C@H]1O (some centres not stated)	40
O=c1cc(-c2ccc(O)cc2)oc2cc(O)cc(O)c12	60
COc1ccc(C2CC(=O)c3c(O)cc(O[C@@H]4O[C@H](CO[C@@H]5O[C@@H](C)[C@H](O)[C@@H](O)[C@H]5O)[C@@H](O)[C@H](O)[C@H]4O)cc3O2)cc1O (some centres not stated)	10
COc1ccc(-c2cc(=O)c3c(OC)c(OC)c(OC)cc3o2)cc1OC	60
C[C@@H]1O[C@@H](O[C@H]2[C@H](Oc3cc(O)c4c(c3)OC(c3ccc(O)c(O)c3)CC4=O)O[C@H](CO)[C@@H](O)[C@@H]2O)[C@H](O)[C@H](O)[C@H]1O (some centres not stated)	> 20
O=c1c(O)c(-c2ccc(O)c(O)c2)oc2cc(O)cc(O)c12	> 99

Target: Autoinducer 2-binding periplasmic protein LuxP (Vibrio harveyi) (UniProt P54300)
Sequence (P54300 whole entry): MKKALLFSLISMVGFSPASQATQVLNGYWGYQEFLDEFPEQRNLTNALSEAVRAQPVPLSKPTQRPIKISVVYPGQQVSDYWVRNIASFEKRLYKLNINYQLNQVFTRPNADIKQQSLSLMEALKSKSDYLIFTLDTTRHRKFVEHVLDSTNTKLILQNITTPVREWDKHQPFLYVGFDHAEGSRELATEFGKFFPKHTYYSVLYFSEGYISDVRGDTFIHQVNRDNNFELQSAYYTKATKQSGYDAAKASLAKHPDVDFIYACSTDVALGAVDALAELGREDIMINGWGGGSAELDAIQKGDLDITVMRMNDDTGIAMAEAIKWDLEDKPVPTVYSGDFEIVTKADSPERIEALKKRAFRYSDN
Test: Antagonist activity against LuxP signalling in Vibrio harveyi BB170 assessed as inhibition of AI-2 regulated bioluminescence at 20 to 40 uM and measured after 2.5 hrs by bioluminescence assay
Conditions: filed as antagonist, dose 20-40 µM

SMILES	inhibition [%]
CC(C)CC(=O)C(=O)C(O)CO (configuration not stated)	50
CC(C)C(=O)C(=O)C(O)CO (configuration not stated)	50

Target: T1, Autoinducer 1 sensor kinase/phosphatase LuxN (Vibrio harveyi, UniProt P0C5S6)
T1 sequence (P0C5S6 whole entry): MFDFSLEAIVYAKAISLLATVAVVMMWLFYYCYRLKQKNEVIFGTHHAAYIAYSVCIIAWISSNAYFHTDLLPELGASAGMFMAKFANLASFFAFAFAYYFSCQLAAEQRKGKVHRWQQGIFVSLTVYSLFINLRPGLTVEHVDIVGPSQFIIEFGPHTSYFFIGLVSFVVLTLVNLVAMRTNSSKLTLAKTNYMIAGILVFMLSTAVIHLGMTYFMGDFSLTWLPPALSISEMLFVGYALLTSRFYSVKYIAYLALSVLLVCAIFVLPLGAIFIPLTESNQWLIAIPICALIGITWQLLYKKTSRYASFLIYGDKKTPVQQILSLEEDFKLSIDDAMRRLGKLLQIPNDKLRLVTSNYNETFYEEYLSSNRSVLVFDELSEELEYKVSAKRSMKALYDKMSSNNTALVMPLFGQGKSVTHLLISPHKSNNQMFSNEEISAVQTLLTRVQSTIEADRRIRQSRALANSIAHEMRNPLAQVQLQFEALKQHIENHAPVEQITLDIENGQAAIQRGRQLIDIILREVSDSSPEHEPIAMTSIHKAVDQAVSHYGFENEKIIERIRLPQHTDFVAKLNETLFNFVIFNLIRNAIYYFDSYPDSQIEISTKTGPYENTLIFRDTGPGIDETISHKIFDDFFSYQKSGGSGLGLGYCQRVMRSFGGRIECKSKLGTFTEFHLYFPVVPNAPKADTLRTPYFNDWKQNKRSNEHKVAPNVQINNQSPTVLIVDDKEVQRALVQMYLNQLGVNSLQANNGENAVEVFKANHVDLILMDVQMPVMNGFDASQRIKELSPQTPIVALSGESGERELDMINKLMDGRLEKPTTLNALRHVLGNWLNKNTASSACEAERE
Test: Antagonist activity at LuxN signaling in Vibrio harveyi HLS253 assessed as inhibition of 3-hydroxybutanoyl homoserine lactone induced bioluminescence by autoinducer based bioluminescence assay
Conditions: not given

SMILES	IC50 [µM]
CC(=O)N1CCc2cc(S(=O)(=O)NC(CC(C)C)C(=O)CCc3ccc(O)cc3)ccc21 (configuration not stated)	2.7
O=C(c1ccc(O)cc1)c1ccc(S(=O)(=O)c2ccc(O)cc2)cc1	2.6

Target: LuxP/Q (Vibrio harveyi, UniProt P54300+P54302)
Sequence (P54300 whole entry): as the sequence (P54300 whole entry) above
Sequence (P54302 whole entry): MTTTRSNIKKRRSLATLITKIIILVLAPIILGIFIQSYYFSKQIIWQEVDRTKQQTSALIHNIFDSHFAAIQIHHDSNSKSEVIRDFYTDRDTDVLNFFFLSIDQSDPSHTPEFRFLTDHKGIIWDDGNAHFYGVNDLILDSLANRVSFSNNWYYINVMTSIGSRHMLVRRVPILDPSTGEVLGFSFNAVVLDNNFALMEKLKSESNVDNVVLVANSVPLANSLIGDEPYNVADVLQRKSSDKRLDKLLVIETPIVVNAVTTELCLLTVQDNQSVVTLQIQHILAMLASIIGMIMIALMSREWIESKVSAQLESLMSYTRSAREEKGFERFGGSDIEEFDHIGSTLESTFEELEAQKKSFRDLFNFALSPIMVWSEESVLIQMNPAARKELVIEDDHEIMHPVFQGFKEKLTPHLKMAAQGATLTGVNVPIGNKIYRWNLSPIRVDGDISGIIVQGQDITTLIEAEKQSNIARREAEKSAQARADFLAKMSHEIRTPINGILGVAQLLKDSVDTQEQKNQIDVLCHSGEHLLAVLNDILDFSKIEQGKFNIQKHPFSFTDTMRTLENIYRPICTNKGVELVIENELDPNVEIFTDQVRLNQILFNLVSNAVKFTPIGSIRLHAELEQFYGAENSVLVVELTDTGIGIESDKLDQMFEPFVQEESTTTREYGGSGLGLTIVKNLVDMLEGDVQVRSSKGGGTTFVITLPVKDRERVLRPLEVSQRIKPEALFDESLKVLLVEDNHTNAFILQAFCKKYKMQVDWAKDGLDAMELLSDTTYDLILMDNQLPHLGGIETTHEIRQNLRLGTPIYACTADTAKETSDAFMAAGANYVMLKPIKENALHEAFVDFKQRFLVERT
Test: Antagonist activity against LuxPQ quorum sensing system in Vibrio harveyi MM32 assessed as inhibition of luminescence intensity incubated for 3 to 4 hrs by luminescence microplate reader analysis
Assay type: protein-complex assay
Conditions: not given

SMILES	IC50 [µM]
Cc1ccc(B(O)O)c(F)c1	4
Cc1ccc(B(O)O)cc1F	9
N#Cc1ccc(B(O)O)cc1	6
COC(=O)c1ccc(B(O)O)cc1	5
OB(O)c1ccc(OCc2ccccc2)cc1	4

Target: T2, Autoinducer 1 sensor kinase/phosphatase LuxN (Vibrio harveyi) (UniProt P0C5S6)
T2 sequence (whole entry): T1 sequence (P0C5S6 whole entry)
Test: Inhibition of LuxN quorum sensing signaling in Vibrio harveyi BB886 assessed as inhibition of N-acylhomoserine lactone (HAI-1) activity by measuring bioluminescence for every 20 mins by autoinducer bioassay
Conditions: not given

SMILES	inhibition [%]
C/C(=C\COc1c2ccoc2cc2oc(=O)ccc12)CCC(O)C(C)(C)O (configuration not stated)	96.7
CC(C)=CCC/C(C)=C/COc1c2ccoc2cc2oc(=O)ccc12	96.7

System: not listed separately
Test: Inhibition of quorum-sensing system in Vibrio harveyi BB170 assessed as inhibition of AI-2 at 0.1 to 10 uM and measured after 24 hrs by bioluminescence assay
Conditions: dose 0.1-10 µM

SMILES	inhibition [%]
CCCCCCCCCCCCCCCCCC(=O)O	> 25
CCCCCCCC/C=C\CCCCCCCC(=O)O	> 75
CCCCC/C=C\C/C=C\CCCCCCCC(=O)O	> 99
CCCCCCCCCCCCCCCC(=O)O	25

System: Vibrio harveyi
Test: Inhibition of CAI-1 mediated quorum-sensing in Vibrio harveyi JMH626 assessed as inhibition of CAI-1 mediated luminescence at 2 uM by bioluminescence assay
Conditions: not given

SMILES	inhibition [%]
CCCCCCC[C@@H](C/C=C/CCC(=O)O)OC	100

Target: LuxP/Q (Vibrio harveyi) (UniProt P54300+P54302)
Test: Antagonist activity against Vibrio harveyi BB886 LuxPQ assessed as inhibition of AI-2 induced bioluminescence at 40 uM and measured after 6 hrs by bioluminescence assay
Assay type: protein-complex assay
Conditions: not given

SMILES	inhibition [%]
COc1ccc(CCC(=O)NC[C@H]2[C@@H](O)[C@H](n3cnc4c(N)ncnc43)O[C@@H]2CO)cc1	20
COc1cccc(/C=C/C(=O)N[C@H]2[C@@H](O)[C@H](n3cnc4c(N)ncnc43)O[C@@H]2CO)c1	20

Same assay, conditions: filed as antagonist

SMILES	inhibition [%]
NC(=S)CS(=O)(=O)c1cccs1	60
COc1ccc(CCC(=O)N[C@H]2[C@@H](O)[C@H](n3cnc4c(N)ncnc43)O[C@@H]2CO)cc1	80
COc1ccc(CCC(=O)N[C@@H]2[C@@H](CO)OC(OC)[C@@H]2O)cc1 (some centres not stated)	40
COC(=O)c1ccc(B(O)O)cc1	> 80

System: not listed separately
Test: Toxicity in […] mouse with abdominal infection assessed survival rate at 4.5 microg/g,ip and measured after 4 days
Conditions: in vivo, dose 4.5 µg/g, time 4 day

SMILES	survival at 96 h [%]
CCCCC1=C(Br)/C(=C/Br)OC1=O	90

System: Vibrio harveyi
Test: Inhibition of Vibrio harveyi BB886 LuxS assessed as inhibition of autoinducer-2 induced QS activity at 100 uM for 16 hrs by bioluminescence assay
Conditions: not given

SMILES	inhibition [%]
O=C1C=C/C(=C/Br)O1	96

System: Vibrio harveyi
Test: Inhibition of biofilm formation in Vibrio harveyi BB120 at 500 uM for 24 hrs by crystal violet assay
Assay type: functional
Conditions: not given

SMILES	inhibition at 500 µM [%]
COc1cc(O)cc([C@@H]2CC(=O)c3c(OC)cc(O)cc3O2)c1	68
COc1cc(/C=C/C(=O)c2c(O)cc(O)cc2OC)ccc1O	60

Target: T1, Autoinducer 1 sensor kinase/phosphatase LuxN
Test: Antagonist activity against Vibrio harveyi BB120 LuxN assessed as inhibition of AI-2 regulated bioluminescence and measured after 6 hrs by bioluminescence assay
Conditions: not given

SMILES	IC50 [µM]
Nc1ncnc2c1ncn2[C@@H]1O[C@H](CO)[C@@H](N)[C@H]1O	2.9
[N-]=[N+]=N[C@H]1[C@@H](O)[C@H](n2cnc3c(N)ncnc32)O[C@@H]1CO	2.7

Target: T3, HTH-type transcriptional regulator LuxR (Vibrio harveyi) (UniProt P21308)
T3 sequence (whole entry): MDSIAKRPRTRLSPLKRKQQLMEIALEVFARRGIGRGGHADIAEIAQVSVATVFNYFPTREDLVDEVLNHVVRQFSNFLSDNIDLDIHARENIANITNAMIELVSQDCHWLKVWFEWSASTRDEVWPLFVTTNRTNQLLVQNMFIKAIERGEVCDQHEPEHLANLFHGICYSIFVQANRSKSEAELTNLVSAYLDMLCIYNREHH
Test: Inhibition of LuxR quorum sensing system in Vibrio harveyi BB120 assessed as inhibition of autoinducer-2 induced luxR activity at 100 uM for 16 hrs by bioluminescence assay
Conditions: not given

SMILES	inhibition [%]
O=C/C=C/c1ccccc1[N+](=O)[O-]	62
CCCCCC/C=C/C(=O)CO	17
O=C/C=C/c1ccc([N+](=O)[O-])cc1	33
O=C/C=C/c1ccc(Cl)c(C(F)(F)F)c1	97
O=C/C=C/c1ccc(Cl)c(Cl)c1	99
CCCCCCC/C=C/C=O	90
CCCCC/C=C/C=O	71
NC(=O)/C=C/c1ccccc1	61
COc1ccc(/C=C/C=O)cc1	34
O=C/C=C/c1c(F)c(F)c(F)c(F)c1F	95
CC(=O)CCc1ccccc1	13
CCCCCCCCCC/C=C/C=O	56
CCCCC/C=C/C(C)=O	100
O=C/C=C/c1ccccc1	65
CCCCCCCC/C=C/C=O	94
CCCC/C=C/C=O	55
CN(C)c1ccc(/C=C/C=O)cc1	17
CCCC/C=C/C(C)=O	80
COc1ccccc1/C=C/C=O	14
CC(=O)C1=CCCCC1	16
CCCCCC/C=C/C=O	100
CC(=O)/C=C/c1ccccc1	78
CC/C=C/C=O	58
CS(=O)(=O)/C=C/c1ccccc1	73
CCCCCCCCC/C=C/C=O	87
CCCCCC/C=C/C(C)=O	100
CCCC/C=C/C(=O)O	36
CCCCCC/C=C/C(=O)OC	59
CCC/C=C/C=O	35
